What was measured:
Details in all cases: growth mode: biofilm, 24 h; exposure time: 24 h
colistin [1] = compound: T1, CCC(C)CCCC(=O)N[C@@H](CCN)C(=O)N[C@H](C(=O)N[C@@H](CCN)C(=O)N[C@H]1CCNC(=O)[C@H]([C@@H](C)O)NC(=O)[C@H](CCN)NC(=O)[C@H](CCN)NC(=O)[C@H](CC(C)C)NC(=O)[C@@H](CC(C)C)NC(=O)[C@H](CCN)NC1=O)[C@@H](C)O [colistin]; assay: minimum concentration of killing, 4-log CFU reduction of biofilm (MCK99.99); higher = more biofilm tolerance
Description: (§1)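 Clinical P. aeruginosa isolates were grown as static biofilms for 24 h at 37 °C in LB in half-area 96-well plates, then exposed for 24 h to colistin at 1, 4, 16, 64, 256 or […]. Surviving CFU were counted by spotting serial dilutions. MCK is the lowest tested concentration giving the stated log reduction in CFU versus an untreated control; '>1024' means the reduction was not reached at the top dose, and 1 is the lowest dose tested (≤1).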

colistin [2] = compound: T1, colistin; assay: minimum concentration of killing, 2-log CFU reduction of biofilm (MCK99); higher = more biofilm tolerance
Description: as §1

tobramycin [3] = compound: T2, NC[C@H]1O[C@H](O[C@H]2[C@H](O)[C@@H](O[C@H]3O[C@H](CO)[C@@H](O)[C@H](N)[C@H]3O)[C@H](N)C[C@@H]2N)[C@H](N)C[C@@H]1O [tobramycin]; assay: minimum concentration of killing, 4-log CFU reduction of biofilm (MCK99.99); higher = more biofilm tolerance
Description: (§2)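 Clinical P. aeruginosa isolates were grown as static biofilms for 24 h at 37 °C in LB in half-area 96-well plates, then exposed for 24 h to tobramycin at 1, 4, 16, 64, 256 or […]. Surviving CFU were counted by spotting serial dilutions. MCK is the lowest tested concentration giving the stated log reduction in CFU versus an untreated control; '>1024' means the reduction was not reached at the top dose, and 1 is the lowest dose tested (≤1).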

tobramycin [4] = compound: T2, tobramycin; assay: minimum concentration of killing, 2-log CFU reduction of biofilm (MCK99); higher = more biofilm tolerance
Description: as §2

tobramycin [5] = compound: T2, tobramycin; assay: minimum concentration eradicating biofilm below detection limit (MCK-E); higher = more biofilm tolerance
Description: as §2

colistin [6] = compound: T1, colistin; assay: as above
Description: as §1

colistin [7] = compound: T1, colistin; assay: minimum concentration of killing, 1-log CFU reduction of biofilm (MCK90); higher = more biofilm tolerance
Description: as §1

tobramycin [8] = compound: T2, tobramycin; assay: as above
Description: as §2

Row | Test System | minimum concentration of killing (colistin [1]) | minimum concentration of killing (colistin [2]) | minimum concentration of killing (tobramycin [3]) | minimum concentration of killing (tobramycin [4]) | minimum concentration eradicating biofilm below detection limit (tobramycin [5]) | minimum concentration eradicating biofilm below detection limit (colistin [6]) | minimum concentration of killing (colistin [7]) | minimum concentration of killing (tobramycin [8])
1 | Pseudomonas aeruginosa clinical isolate CH5596 | 256 µg/mL | 64 µg/mL | 64 µg/mL | 4 µg/mL | 256 µg/mL | 256 µg/mL | 64 µg/mL | 4 µg/mL
2 | Pseudomonas aeruginosa clinical isolate CH5597 | 64 µg/mL | 64 µg/mL | 256 µg/mL | 64 µg/mL | 256 µg/mL | 64 µg/mL | 64 µg/mL | ≤ 1 µg/mL
3 | Pseudomonas aeruginosa clinical isolate CH5621 | 256 µg/mL | 256 µg/mL | > 1020 µg/mL | 1020 µg/mL | > 1020 µg/mL | 256 µg/mL | 256 µg/mL | 64 µg/mL
4 | Pseudomonas aeruginosa clinical isolate CH5638 | 256 µg/mL | 256 µg/mL | 1020 µg/mL | 16 µg/mL | 1020 µg/mL | 256 µg/mL | 64 µg/mL | 16 µg/mL
5 | Pseudomonas aeruginosa clinical isolate ESP001 | 256 µg/mL | 64 µg/mL | 256 µg/mL | 256 µg/mL | 1020 µg/mL | 256 µg/mL | 64 µg/mL | 16 µg/mL
6 | Pseudomonas aeruginosa clinical isolate ESP002 | 256 µg/mL | 64 µg/mL | 256 µg/mL | 256 µg/mL | 256 µg/mL | 256 µg/mL | 4 µg/mL | 256 µg/mL
7 | Pseudomonas aeruginosa clinical isolate ESP003 | 256 µg/mL | 256 µg/mL | 1020 µg/mL | 256 µg/mL | 1020 µg/mL | 256 µg/mL | 256 µg/mL | 16 µg/mL
8 | Pseudomonas aeruginosa clinical isolate ESP004 | 256 µg/mL | 256 µg/mL | 1020 µg/mL | 1020 µg/mL | > 1020 µg/mL | 256 µg/mL | 64 µg/mL | 256 µg/mL
9 | Pseudomonas aeruginosa clinical isolate ESP006 | 64 µg/mL | 64 µg/mL | 256 µg/mL | 64 µg/mL | 1020 µg/mL | 256 µg/mL | 64 µg/mL | 16 µg/mL
10 | Pseudomonas aeruginosa clinical isolate ESP009 | 64 µg/mL | 64 µg/mL | 256 µg/mL | 16 µg/mL | 1020 µg/mL | 64 µg/mL | 64 µg/mL | 16 µg/mL
11 | Pseudomonas aeruginosa clinical isolate ESP011 | 64 µg/mL | 16 µg/mL | 1020 µg/mL | 256 µg/mL | 1020 µg/mL | 64 µg/mL | 16 µg/mL | 16 µg/mL
12 | Pseudomonas aeruginosa clinical isolate ESP012 | 64 µg/mL | 64 µg/mL | > 1020 µg/mL | > 1020 µg/mL | > 1020 µg/mL | 64 µg/mL | 64 µg/mL | 256 µg/mL
13 | Pseudomonas aeruginosa clinical isolate ESP013 | 256 µg/mL | 64 µg/mL | > 1020 µg/mL | > 1020 µg/mL | > 1020 µg/mL | 1020 µg/mL | 64 µg/mL | > 1020 µg/mL
14 | Pseudomonas aeruginosa clinical isolate ESP015 | 256 µg/mL | 256 µg/mL | 256 µg/mL | 64 µg/mL | 256 µg/mL | 256 µg/mL | 64 µg/mL | 4 µg/mL
